Like-named read-outs stand apart in the source and are kept apart here.
Key:
EGFR [T790M/L858R] = biological target: T1, EGFR [T790M/L858R] (Homo sapiens, UniProt P00533, L858R/T790M); assay: Phosphorylation activity inhibitory effect (in vitro) on mutant EGFR T790M/L858R; format: biochemical
T1 construct: purchased Carna Biosciences, Inc
Protocol: (§1) Test Example 6 Measurement of Phosphorylation Activity Inhibitory Effect (In Vitro) on Wild-Type and Mutant EGFR
(§2) The measurement of the in vitro inhibitory activity of a compound against wild-type and mutant EGFR was outsourced to Carna Biosciences, Inc. (Kinase Profiling Book, https://www.carnabio.com/japanese/product/search.cgi?mode=profiling).
(§3) Specifically, first, the pyrimidine compound of the present invention was diluted stepwise with dimethyl sulfoxide (DMSO). […] To the reaction solution, Termination Buffer was added, so as to terminate the kinase reaction. Finally, using LabChip™ EZ Reader II (PerkinElmer), an unphosphorylated substrate peptide (S) and a phosphorylated peptide (P) were separated and detected according to microchannel capillary electrophoresis.
(§4) As the pyrimidine compound of the present invention, the compound of Example 11 (Example compound 11) was used.

[1] = system: Human stomach cancer-derived tumor cells 4-1ST
Protocol: (§5) Human stomach cancer-derived tumor cells 4-1ST were obtained as fragment tumor from the Central Institute for Experimental Animals. Tumor was removed approximately 1 month after subcutaneous transplantation and passage in a 6 week old male nude mouse (BALB/cAJc1-nu/nu, CLEA Japan, Inc.), and a fragment of approximately 2 mm square was prepared. A transplantation needle was filled with one fragment and subcutaneously inserted from around the right last rib of each nude mouse so as to enter the right back. The tumor was pushed out by pressing the inner syringe and thereby transplanted. For the measurement of the tumor size, electronic calipers were used. […] A tumor volume (TV) was calculated from this major axis and minor axis. A relative tumor volume change percentage (T/C) was calculated from the calculated tumor volume. TV and T/C were calculated according to the following equations:
(§6) Tumor Volume (TV)(mm^3)=(Major axis,mm)×(Minor axis,mm)×(Minor axis,mm)/2
(§7) Relative tumor volume change percentage (T/C)(%)=(Mean TV of the administration group)/(Mean TV of a control group)×100
(§8) For the measurement of the body weight, an animal electronic balance was used. A body weight change percentage on the n^th day (BWCn) from the body weight on 0th day (BW0) and the body weight on the n^th day (BWn) was calculated according to the following equation:
(§9) Body weight change percentage BWCn (%)=(BWn−BW0)/BW0×100
(§10) Nude mice having TV of 50 to 300 mm^3 were selected and assigned to groups each involving 6 animals by the equal number method [MiSTAT (ver. 2.1)] such that the means of TV were equal among the groups. […] An untreated group was used as a control.
(§11) The presence or absence of a combinatorial effect and toxicity was judged from the tumor sizes and the body weights on the grouping day (Day 0) and the judgement day (Day 15). During the administration period, the body weight was measured every day for calculation of the amount of the dosing solution.
An untreated group was used as a control.

EGFR = biological target: T2, EGFR (Homo sapiens, UniProt P00533); assay: Phosphorylation activity inhibitory effect (in vitro) on wild-type EGFR; format: biochemical
T2 construct: purchased Carna Biosciences, Inc
Protocol: as §1, §2, §3, §4

SK-BR-3 cells = assay: Growth inhibitory activity against HER2 expressing cell line SK-BR-3; format: cell-based; conditions: Homo sapiens, SK-BR-3, 72 h; 3 days, CellTiter-Glo 2.0
Protocol: Test Example 3 Measurement of Growth Inhibitory Activity Against HER2 Expressing Cell Line
SK-BR-3 cells as a HER2 overexpressing human breast cancer cell line were suspended in a McCoy's 5a medium (manufactured by Life Technologies) supplemented with 10% fetal bovine serum. The cell suspension was seeded in each well of a 384-well flat-bottom microplate, and was then cultured in a 5% carbon dioxide gas-containing culture vessel at 37° C. for 1 day. Thereafter, the compound of the present invention was dissolved in DMSO, and the pyrimidine compound was diluted to 500 times the final concentration in DMSO. The compound in the DMSO solution was diluted with DMSO solution or the medium used in the suspension of the cells, and the obtained solution was then added to each well of the culture plate so that the final concentration of DMSO was 0.2%. The obtained mixture was further cultured in the 5% carbon dioxide gas-containing culture vessel at 37° C. for 3 days. After completion of the culture for 3 days in the presence of the compound, the cells were counted using CellTiter-Glo 2.0 (manufactured by Promega), and the growth inhibition percentage was then calculated according to the following equation.
Growth inhibitory percentage (%)=(C−T)/(C)×100 […]

EGFR [d746-750/T790M] = biological target: T3, EGFR [d746-750/T790M] (Homo sapiens, UniProt P00533, DEL746-750/T790M); assay: Phosphorylation activity inhibitory effect (in vitro) on mutant EGFR d746-750/T790M; format: biochemical
T3 construct: purchased Carna Biosciences, Inc
Protocol: as §1, §2, §3, §4

[2] = system: Human stomach cancer-derived tumor cells 4-1ST; conditions: for BWC (%, Mean ± SE) / T/C (%) / TV (mm^3, mean ± SE): Day 15; for BWC (%, Mean ± SE) / T/C (%) / TV (mm^3, mean ± SE) / Number of Deaths: Days 1-14, po
Protocol: as §5, §6, §7, §8, §9, §10, §11

[3] = system: human stomach cancer cell line NCI-N87; assay: Combination (in vivo) of pyrimidine compound and capecitabine, NCI-N87 subcutaneous model
Protocol: Test Example 18 Combination (In Vivo) of Pyrimidine Compound and Capecitabine
A human stomach cancer cell line NCI-N87 was obtained from American Type Culture Collection (ATCC). The cell line was cultured in RPMI-1640 (containing 4.5 g/L glucose, 10 mM HEPES and 1 mM sodium pyruvate) (FUJIFILM Wako Pure Chemical Corporation) medium containing 10% fetal bovine serum (FBS) in a 5% CO2 incubator at 37° C.
The NCI-N87 cells were resuspended at a concentration of 8×10^7 cells/mL in PBS.
An aqueous solution containing 0.1 N HCl and 0.5% HPMC was used as a control.

[4] = system: Human stomach cancer-derived tumor cells 4-1ST; conditions: for BWC (%, Mean ± SE) / T/C (%) / TV (mm^3, mean ± SE): Day 15; for BWC (%, Mean ± SE) / T/C (%) / TV (mm^3, mean ± SE) / Number of Death / cCR (%) / pCR (%): Days 1-14, po; for cCR (%): clinical CR (TV=0); for pCR (%): pathological CR
Protocol: Tumor was removed approximately 1 month after subcutaneous transplantation and passage in a 6 week old male nude mouse (BALB/cAJc1-nu/nu, CLEA Japan, Inc.), and a fragment of approximately 2 mm square was prepared. A transplantation needle was filled with one fragment and subcutaneously inserted from around the right last rib of each nude mouse so as to enter the right back. The tumor was pushed out by pressing the inner syringe and thereby transplanted. For the measurement of the tumor size, electronic calipers were used. […] A tumor volume (TV) was calculated from this major axis and minor axis. A relative tumor volume change percentage (T/C) was calculated from the calculated tumor volume. TV and T/C were calculated according to the following equations:
as §6, §7, §8, §9
Nude mice having TV of 100 to 300 mm^3 were selected and assigned to groups each involving 6 animals by the equal number method [MiSTAT (ver. 2.0)] such that the means of TV were equal among the groups. […] An untreated group was used as a control.
as §11
When an individual of TV=0 was found, a complete response (hereinafter, CR) rate was also set as an evaluation item. For the judgement of CR, clinical CR (cCR) based on TV=0 and pathological CR (pCR) based on pathological test were used.
CR rate=(The number of CR individuals in a group found to have CR)/(Total number of individuals in the group found to have CR)×100

EGFR [L858R] = biological target: T4, EGFR [L858R] (Homo sapiens, UniProt P00533, L858R); assay: Phosphorylation activity inhibitory effect (in vitro) on mutant EGFR L858R; format: biochemical
T4 construct: purchased Carna Biosciences, Inc
Protocol: as §1, §2, §3, §4

EGFR [D770_N771insNPG] = biological target: T5, EGFR [D770_N771insNPG] (Homo sapiens, UniProt P00533, INS770NPG); assay: Phosphorylation activity inhibitory effect (in vitro) on mutant EGFR D770_N771insNPG; format: biochemical
T5 construct: purchased Carna Biosciences, Inc
Protocol: as §1, §2, §3, §4

EGFR [d746-750] = biological target: T6, EGFR [d746-750] (Homo sapiens, UniProt P00533, DEL746-750); assay: Phosphorylation activity inhibitory effect (in vitro) on mutant EGFR d746-750; format: biochemical
T6 construct: purchased Carna Biosciences, Inc
Protocol: as §1, §2, §3, §4

[5] = Day 15, Example 11 6.25 mg/kg/day, Days 1-14, po
[6] = day 15, Example 11 6.25 mg/kg/day, day 1-14, p.o.

T5 sequence (P00533 with tags, fused parts or gaps INS770NPG limits assumed): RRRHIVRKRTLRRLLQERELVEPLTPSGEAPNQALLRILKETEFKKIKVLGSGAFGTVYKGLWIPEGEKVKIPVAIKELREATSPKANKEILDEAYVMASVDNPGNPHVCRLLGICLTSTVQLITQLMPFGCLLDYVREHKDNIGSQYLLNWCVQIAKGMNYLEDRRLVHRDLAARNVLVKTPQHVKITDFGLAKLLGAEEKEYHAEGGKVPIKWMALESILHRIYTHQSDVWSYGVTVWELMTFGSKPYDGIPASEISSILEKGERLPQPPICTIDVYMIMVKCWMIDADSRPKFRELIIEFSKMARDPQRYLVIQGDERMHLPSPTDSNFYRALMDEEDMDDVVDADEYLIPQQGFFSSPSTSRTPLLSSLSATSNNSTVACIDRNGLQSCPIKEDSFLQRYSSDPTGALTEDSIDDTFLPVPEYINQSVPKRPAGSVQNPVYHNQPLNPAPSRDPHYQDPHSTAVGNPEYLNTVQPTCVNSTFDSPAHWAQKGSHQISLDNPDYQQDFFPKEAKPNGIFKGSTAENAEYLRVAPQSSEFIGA
T1 sequence (P00533 25-1210 T790M/L858R): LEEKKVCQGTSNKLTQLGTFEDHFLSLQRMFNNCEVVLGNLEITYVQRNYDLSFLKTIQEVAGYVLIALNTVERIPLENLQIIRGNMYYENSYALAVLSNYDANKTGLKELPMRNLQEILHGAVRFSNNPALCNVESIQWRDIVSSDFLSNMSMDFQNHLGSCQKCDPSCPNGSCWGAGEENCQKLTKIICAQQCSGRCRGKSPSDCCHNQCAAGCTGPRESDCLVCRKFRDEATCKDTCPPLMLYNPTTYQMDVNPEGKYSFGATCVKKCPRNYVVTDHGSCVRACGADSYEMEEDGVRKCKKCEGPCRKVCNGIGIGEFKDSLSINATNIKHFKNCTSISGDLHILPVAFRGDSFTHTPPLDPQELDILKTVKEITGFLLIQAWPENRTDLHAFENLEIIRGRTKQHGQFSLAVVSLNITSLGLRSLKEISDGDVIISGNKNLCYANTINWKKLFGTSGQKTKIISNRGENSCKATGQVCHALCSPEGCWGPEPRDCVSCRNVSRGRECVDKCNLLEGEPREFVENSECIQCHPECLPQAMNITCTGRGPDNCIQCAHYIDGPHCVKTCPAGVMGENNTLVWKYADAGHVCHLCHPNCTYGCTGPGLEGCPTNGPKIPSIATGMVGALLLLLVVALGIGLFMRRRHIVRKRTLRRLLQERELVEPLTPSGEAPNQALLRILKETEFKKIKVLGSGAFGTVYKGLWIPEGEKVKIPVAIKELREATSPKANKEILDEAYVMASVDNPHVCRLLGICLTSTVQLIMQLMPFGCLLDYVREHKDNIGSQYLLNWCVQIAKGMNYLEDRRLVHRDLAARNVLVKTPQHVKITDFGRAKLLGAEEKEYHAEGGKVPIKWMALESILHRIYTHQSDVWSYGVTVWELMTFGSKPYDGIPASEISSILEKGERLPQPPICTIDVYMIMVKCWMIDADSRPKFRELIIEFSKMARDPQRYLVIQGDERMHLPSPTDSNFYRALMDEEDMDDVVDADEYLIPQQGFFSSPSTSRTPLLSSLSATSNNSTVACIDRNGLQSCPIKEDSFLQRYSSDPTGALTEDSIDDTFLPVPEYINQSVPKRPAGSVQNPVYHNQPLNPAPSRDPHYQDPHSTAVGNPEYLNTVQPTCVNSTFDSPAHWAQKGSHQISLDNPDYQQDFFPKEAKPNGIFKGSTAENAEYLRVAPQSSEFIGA
T4 sequence (P00533 25-1210 L858R): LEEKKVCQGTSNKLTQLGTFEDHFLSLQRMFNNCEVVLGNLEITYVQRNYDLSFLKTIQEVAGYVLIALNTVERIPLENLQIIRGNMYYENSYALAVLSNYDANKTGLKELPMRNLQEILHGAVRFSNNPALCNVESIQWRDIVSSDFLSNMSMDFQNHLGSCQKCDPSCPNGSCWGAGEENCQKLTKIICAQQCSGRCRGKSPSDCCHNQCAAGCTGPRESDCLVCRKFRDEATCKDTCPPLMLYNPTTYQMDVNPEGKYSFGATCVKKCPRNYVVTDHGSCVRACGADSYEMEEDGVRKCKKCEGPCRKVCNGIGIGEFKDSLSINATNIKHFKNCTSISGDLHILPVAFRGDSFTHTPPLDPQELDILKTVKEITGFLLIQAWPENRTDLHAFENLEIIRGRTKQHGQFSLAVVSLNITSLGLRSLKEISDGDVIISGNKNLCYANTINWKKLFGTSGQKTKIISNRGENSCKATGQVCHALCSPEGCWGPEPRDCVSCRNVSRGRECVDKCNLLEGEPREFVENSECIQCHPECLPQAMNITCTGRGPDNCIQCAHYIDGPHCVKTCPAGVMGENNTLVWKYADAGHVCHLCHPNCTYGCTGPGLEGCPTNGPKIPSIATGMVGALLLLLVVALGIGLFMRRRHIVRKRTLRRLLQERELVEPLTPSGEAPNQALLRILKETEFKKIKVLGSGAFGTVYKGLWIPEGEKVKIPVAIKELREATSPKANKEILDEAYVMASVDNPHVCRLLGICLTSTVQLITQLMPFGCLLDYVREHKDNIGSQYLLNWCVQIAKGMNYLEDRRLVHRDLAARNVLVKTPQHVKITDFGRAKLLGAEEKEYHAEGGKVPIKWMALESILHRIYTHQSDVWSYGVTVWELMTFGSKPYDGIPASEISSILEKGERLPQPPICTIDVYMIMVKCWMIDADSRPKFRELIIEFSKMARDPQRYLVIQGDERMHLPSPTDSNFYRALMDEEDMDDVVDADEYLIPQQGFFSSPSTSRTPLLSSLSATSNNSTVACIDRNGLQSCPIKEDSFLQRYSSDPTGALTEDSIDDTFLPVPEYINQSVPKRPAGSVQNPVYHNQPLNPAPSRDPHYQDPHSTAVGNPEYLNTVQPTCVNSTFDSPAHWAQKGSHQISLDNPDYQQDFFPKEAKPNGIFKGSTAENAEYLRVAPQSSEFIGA
T3 sequence (P00533 with tags, fused parts or gaps DEL746-750/T790M): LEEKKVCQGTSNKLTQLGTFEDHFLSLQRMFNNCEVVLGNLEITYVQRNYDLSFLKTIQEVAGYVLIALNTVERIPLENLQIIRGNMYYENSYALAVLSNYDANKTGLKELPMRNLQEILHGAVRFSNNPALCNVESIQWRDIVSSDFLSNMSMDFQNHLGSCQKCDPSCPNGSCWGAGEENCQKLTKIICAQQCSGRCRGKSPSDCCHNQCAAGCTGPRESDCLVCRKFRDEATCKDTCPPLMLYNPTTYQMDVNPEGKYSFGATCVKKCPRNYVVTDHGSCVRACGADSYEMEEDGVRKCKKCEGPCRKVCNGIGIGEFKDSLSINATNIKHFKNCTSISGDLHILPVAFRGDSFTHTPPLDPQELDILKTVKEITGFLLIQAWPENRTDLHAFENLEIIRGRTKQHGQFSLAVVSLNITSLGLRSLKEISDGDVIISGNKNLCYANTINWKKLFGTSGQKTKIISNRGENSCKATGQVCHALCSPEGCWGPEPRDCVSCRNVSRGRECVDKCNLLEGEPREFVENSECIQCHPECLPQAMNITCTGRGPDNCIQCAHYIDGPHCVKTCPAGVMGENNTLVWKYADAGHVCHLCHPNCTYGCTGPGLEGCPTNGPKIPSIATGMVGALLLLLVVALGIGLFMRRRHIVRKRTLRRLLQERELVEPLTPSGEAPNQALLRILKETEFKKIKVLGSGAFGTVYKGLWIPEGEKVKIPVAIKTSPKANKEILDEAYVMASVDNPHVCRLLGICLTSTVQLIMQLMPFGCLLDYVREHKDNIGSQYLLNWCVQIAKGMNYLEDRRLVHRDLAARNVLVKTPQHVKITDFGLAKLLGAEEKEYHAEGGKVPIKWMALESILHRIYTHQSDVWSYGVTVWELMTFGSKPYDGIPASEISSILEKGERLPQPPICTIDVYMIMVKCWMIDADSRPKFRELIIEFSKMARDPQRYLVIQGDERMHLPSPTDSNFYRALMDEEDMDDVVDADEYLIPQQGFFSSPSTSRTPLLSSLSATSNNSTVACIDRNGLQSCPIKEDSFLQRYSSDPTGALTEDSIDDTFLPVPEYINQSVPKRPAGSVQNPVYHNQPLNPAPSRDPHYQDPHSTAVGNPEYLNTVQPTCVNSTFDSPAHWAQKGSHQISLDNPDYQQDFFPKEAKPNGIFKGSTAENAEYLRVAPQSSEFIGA

For C=CC(=O)N1C[C@H](n2c(C#CC3CC3)c(C(=O)N[C@H](C)c3ccccc3)c3c(N)ncnc32)C[C@@H]1C [Example 11, 7-((3R,5S)-1-acryloyl-5-methylpyrrolidin-3-yl)-4-amino-6-(cyclopropylethynyl)-N—((R)-1-phenylethyl)-7H-pyrrolo[2,3-d]pyrimidine-5-carboxamide], the IC50 (EGFR [T790M/L858R]) was 6600 pM, the “BWC (%, Mean ± SE)” value [1, 5] was 4.0 ± 0.7% and the “T/C (%)” value [1, 5] was 14.5%. The “TV (mm^3, mean ± SE)” value [1, 5] was 233.6 ± 42.6 mm^3, the “Number of Death” value ([1]; Example 11 6.25 mg/kg/day, Days 1-14, po) was 0 and the “TV on Day 15 versus control group (Dunnett's test)” value (“TV on Day 15 versus control group” below) ([1]; trastuzumab emtansine iv Day 1, Example 11 po Days 1-14) was “significantly lower TV”. It also gave an IC50 (EGFR) of 470 pM, an IC50 (SK-BR-3 cells) of 6600 pM and an IC50 (EGFR [d746-750/T790M]) of 6800 pM. The “BWC (%, Mean ± SE)” value ([2]; Example 11 6.25 mg/kg/day) was 3.69 ± 0.75%, the “T/C (%)” value ([2]; Example 11 6.25 mg/kg/day) was 22.0% and the “TV (mm^3, mean ± SE)” value ([2]; Example 11 6.25 mg/kg/day) was 448.7 ± 79.0 mm^3. For the same molecule, the “BWC (%, Mean ± SE)” value ([2]; Example 11 12.5 mg/kg/day) was 3.79 ± 1.07%, the “T/C (%)” value ([2]; Example 11 12.5 mg/kg/day) was 3.0% and the “TV (mm^3, mean ± SE)” value ([2]; Example 11 12.5 mg/kg/day) was 62.0 ± 6.9 mm^3. For the same molecule, the “Number of Deaths” value ([2]; Example 11 6.25 mg/kg/day) was 0, the “Number of Deaths” value ([2]; Example 11 12.5 mg/kg/day) was 0 and the “TV on Day 15 versus control group” value ([2]; trastuzumab iv Days 1 and 8 (except for the 20 mg/kg/day group), Example 11 po Days 1-14) was “significantly lower TV”. For the same molecule, the “Number of Death” value ([3]; Example 11 6.25 mg/kg/day, day 1-14, p.o.) was 0, the “TV on Day 15 versus control group” value ([3]; capecitabine and Example 11 po once a day, Days 1-14) was “significantly lower TV” and the “T/C (%)” value [3, 6] was 47%. For the same molecule, the “Tumor volume (mm^3) day 15 Mean ± S.E.” value [3, 6] was 272.43 ± 22.22 mm^3, the “BWC (%) Mean ± S.E.” value ([3]; mouse, in vivo, po, 6.25 mg/kg/day) was 6.3 ± 0.9% and the “BWC (%, Mean ± SE)” value ([4]; Example 11 6.25 mg/kg/day) was 5.93 ± 0.25%. For the same molecule, the “T/C (%)” value ([4]; Example 11 6.25 mg/kg/day) was 17.3%, the “TV (mm^3, mean ± SE)” value ([4]; Example 11 6.25 mg/kg/day) was 295.9 ± 67.3 mm^3 and the “BWC (%, Mean ± SE)” value ([4]; Example 11 12.5 mg/kg/day) was 4.77 ± 1.14%. For the same molecule, the “T/C (%)” value ([4]; Example 11 12.5 mg/kg/day) was 1.9%, the “TV (mm^3, mean ± SE)” value ([4]; Example 11 12.5 mg/kg/day) was 31.9 ± 10.7 mm^3 and the “Number of Death” value ([4]; Example 11 6.25 mg/kg/day) was 0. For the same molecule, the “Number of Death” value ([4]; Example 11 12.5 mg/kg/day) was 0, the “TV on Day 15 versus control group” value ([4]; T-mab and P-mab iv Day 1, Example 11 po Days 1-14) was “significantly lower TV” and the “cCR (%)” value ([4]; Example 11 6.25 mg/kg/day) was 0%. For the same molecule, the “cCR (%)” value ([4]; Example 11 12.5 mg/kg/day) was 33%, the “pCR (%)” value ([4]; Example 11 6.25 mg/kg/day) was 0% and the “pCR (%)” value ([4]; Example 11 12.5 mg/kg/day) was 33%. The IC50 (EGFR [L858R]) was 360 pM, the IC50 (EGFR [D770_N771insNPG]) was 550 pM and the IC50 (EGFR [d746-750]) was 250 pM.

— US20230255972A1, “PYRIMIDINE COMPOUND-CONTAINING COMBINATION TO BE USED IN TUMOR TREATMENT” (TAIHO PHARMACEUTICAL CO., LTD., priority 2020, published 2023)
